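Test compounds were applied to cells in 96-well plates for 48 hours at 5 doses. Abbreviation: GI50, concentration required for 50% inhibition of growth. At the TGI there is no net growth.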
Key:
Test in all cases: DTP human tumour cell line panel, 48 h
[1] = tested on: LOX IMVI melanoma
[2] = tested on: OVCAR-4 ovarian
[3] = tested on: T-47D breast
[4] = tested on: UACC-257 melanoma
[5] = tested on: HOP-92 NSCLC
[6] = tested on: SF-539 CNS
[7] = tested on: SK-MEL-28 melanoma
[8] = tested on: HCT-15 colon
[9] = tested on: MDA-MB-435
[10] = tested on: SR leukemia

CCN1CCC2(CC1)NC(=O)c1c(c3ccc(Cl)c(Cl)c3n1C)C2C#N (stereo not given)
GI50 [1]: 1.65 µM | TGI [1]: 3.34 µM | GI50 [2]: 3.83 µM | TGI [2]: 15.1 µM | GI50 [3]: 3.09 µM | TGI [3]: 13.7 µM | GI50 [4]: 1.84 µM | TGI [4]: 3.96 µM | GI50 [5]: > 100 µM | TGI [5]: > 100 µM | GI50 [6]: 1.89 µM | TGI [6]: 4.52 µM | GI50 [7]: 1.65 µM | TGI [7]: 3.07 µM | GI50 [8]: 1.81 µM | TGI [8]: 4.75 µM | GI50 [9]: 1.93 µM | TGI [9]: 3.77 µM | GI50 [10]: 1.76 µM | TGI [10]: 5.69 µM

COc1ccccc1-c1ccc2nc(NC(=O)Nc3cc(C(F)(F)F)cc(C(F)(F)F)c3)sc2c1
GI50 [1]: 1.68 µM | TGI [1]: 3.13 µM | GI50 [2]: 2.12 µM | TGI [2]: 9.96 µM | GI50 [3]: 2.16 µM | TGI [3]: 9.89 µM | GI50 [4]: 2.31 µM | TGI [4]: 6.52 µM | GI50 [5]: 1.19 µM | TGI [5]: 4.31 µM | GI50 [6]: 1.99 µM | TGI [6]: 5.5 µM | GI50 [7]: 2.51 µM | TGI [7]: 9.1 µM | GI50 [8]: 2.55 µM | TGI [8]: 10.6 µM | GI50 [9]: 2.27 µM | TGI [9]: 6.73 µM | GI50 [10]: 1.76 µM | TGI [10]: 5.25 µM

c1ccc(CCCNc2nnnc3ccccc23)cc1
TGI [1]: > 100 µM | TGI [2]: > 100 µM | TGI [3]: 83 µM | TGI [4]: > 100 µM | TGI [5]: > 100 µM | TGI [6]: > 100 µM | TGI [7]: > 100 µM | TGI [8]: > 100 µM | TGI [9]: > 100 µM | TGI [10]: > 100 µM

CSC1=Nc2c(c(C)c(-c3ccccc3)n2CCCCl)C2=NC(=O)CN12
GI50 [1]: 4.13 µM | TGI [1]: 17.6 µM | GI50 [2]: 6.74 µM | TGI [2]: 44.9 µM | GI50 [3]: 2.63 µM | TGI [3]: 10.9 µM | GI50 [4]: 12.5 µM | TGI [4]: 28.4 µM | GI50 [5]: 11.5 µM | TGI [5]: 37 µM | GI50 [6]: 3.42 µM | TGI [6]: 14 µM | GI50 [7]: 10.2 µM | TGI [7]: 25.4 µM | GI50 [8]: 4.11 µM | TGI [8]: 21.4 µM | GI50 [9]: 2.03 µM | TGI [9]: 4.65 µM | GI50 [10]: 3.45 µM | TGI [10]: > 100 µM

CCOC(=O)/C(=C/c1ccccc1)C(=O)c1ccccc1
GI50 [1]: 1.8 µM | TGI [1]: 3.82 µM | GI50 [2]: 14.4 µM | TGI [2]: 35.4 µM | GI50 [3]: 6.17 µM | TGI [3]: 32.5 µM | GI50 [4]: 2.52 µM | TGI [4]: 10.1 µM | GI50 [5]: 3.92 µM | TGI [5]: 21.8 µM | GI50 [6]: 2.63 µM | TGI [6]: 7.8 µM | GI50 [7]: 2.42 µM | TGI [7]: 6.59 µM | GI50 [8]: 2.97 µM | TGI [8]: 11.2 µM | GI50 [9]: 2.96 µM | TGI [9]: 11.5 µM | GI50 [10]: 3.43 µM | TGI [10]: 18 µM

Nc1ccc(-c2ccc(Nc3cc(S(=O)(=O)O)c(N)c4c3C(=O)c3ccccc3C4=O)cc2)c(S(=O)(=O)O)c1
TGI [1]: > 100 µM | TGI [2]: > 100 µM | TGI [3]: > 100 µM | TGI [4]: > 100 µM | TGI [5]: > 100 µM | TGI [6]: > 100 µM | TGI [7]: > 100 µM | TGI [8]: > 100 µM | TGI [9]: > 100 µM | TGI [10]: > 100 µM

COc1cc(/C=C2\CCCC3C2=Nc2ccccc2NC3c2cc(OC)c(OC)c(OC)c2)cc(OC)c1OC (stereo not given)
GI50 [1]: 1.81 µM | TGI [1]: 5.86 µM | GI50 [2]: 2.14 µM | TGI [2]: > 100 µM | GI50 [3]: 3.75 µM | TGI [3]: 52.7 µM | GI50 [4]: 1.3 µM | TGI [4]: 6.77 µM | GI50 [5]: 1.83 µM | TGI [5]: 9.84 µM | GI50 [6]: 3.9 µM | TGI [6]: > 100 µM | GI50 [7]: 2.02 µM | TGI [7]: 5.24 µM | GI50 [8]: 1.77 µM | TGI [8]: 4.08 µM | GI50 [9]: 0.425 µM | TGI [9]: 4.4 µM | GI50 [10]: 0.723 µM | TGI [10]: 3.14 µM
